Source: patent US20260049085A1, “CYCLIC COMPOUNDS AND METHODS OF USING SAME” (SCHRÖDINGER, INC., priority 2022, published 2026)

Assays:
[1] = target: T1, full-length MALT1 protein His-MALT1(1-824) (Homo sapiens, UniProt Q9UDY8); assay: MALT1 protease assay (Ac-LRSR-AMC tetrapeptide substrate, fluorescence); type: biochemical; conditions: 1 nM MALT1, 25 μM Ac-LRSR-AMC, 2 h pre-incubation, 8 hr incubation at RT
T1 construct: full-length MALT1 protein His-MALT1(1-824); His (N); made in house; host or cells: baculovirus-infected insect cells
T1 sequence (Q9UDY8 1-824): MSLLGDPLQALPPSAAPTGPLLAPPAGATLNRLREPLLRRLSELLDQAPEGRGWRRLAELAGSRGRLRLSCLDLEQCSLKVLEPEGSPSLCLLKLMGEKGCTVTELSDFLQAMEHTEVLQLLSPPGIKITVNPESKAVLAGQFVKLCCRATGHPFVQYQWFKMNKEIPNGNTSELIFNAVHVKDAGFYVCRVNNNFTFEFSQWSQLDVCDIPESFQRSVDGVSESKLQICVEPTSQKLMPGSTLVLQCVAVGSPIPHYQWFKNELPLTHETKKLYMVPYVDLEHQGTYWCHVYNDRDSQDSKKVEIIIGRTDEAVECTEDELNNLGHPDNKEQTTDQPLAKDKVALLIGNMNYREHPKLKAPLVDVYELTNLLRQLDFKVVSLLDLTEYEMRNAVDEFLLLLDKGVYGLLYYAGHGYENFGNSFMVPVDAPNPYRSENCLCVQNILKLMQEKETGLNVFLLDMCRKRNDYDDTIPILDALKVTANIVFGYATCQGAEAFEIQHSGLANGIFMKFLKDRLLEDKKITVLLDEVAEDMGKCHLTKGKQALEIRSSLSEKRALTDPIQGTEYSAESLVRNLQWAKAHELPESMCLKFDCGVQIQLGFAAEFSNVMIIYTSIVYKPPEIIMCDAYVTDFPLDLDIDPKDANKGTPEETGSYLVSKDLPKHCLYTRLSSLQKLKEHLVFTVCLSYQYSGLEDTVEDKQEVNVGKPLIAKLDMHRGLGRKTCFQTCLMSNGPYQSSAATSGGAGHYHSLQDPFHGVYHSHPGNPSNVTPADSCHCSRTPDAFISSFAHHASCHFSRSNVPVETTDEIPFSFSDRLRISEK
Outline: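 Full-length His-MALT1(1-824) from baculovirus-infected insect cells (1 nM) was pre-incubated 2 h at RT with compounds (0.1% DMSO), then 25 μM Ac-LRSR-AMC added in 50 mM Tris pH 7.5, 600 mM sodium citrate, 1 mM DTT, 1 mM EDTA, 0.05% BSA. Fluorescence (ex 355/em 460 nm) read after 8 h at RT; IC50 by non-linear regression of % remaining activity.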

[2] = test system: IL10 secretion, OCI-LY10 cells; assay: Human IL10 secretion assay in OCI-LY10 cells (MSD); type: cell-based; conditions: 24 h incubation, relative to DMSO set as 100%, read-out: IL-10 Secretion IC50
Procedure: IL10 is one of the cytokines that are regulated via activation of NF-kB signaling. For example, in ABC-DLBCL cell lines, the activated NF-kB signaling leads to increased IL10 secretion. Inhibition of NF-kB signaling has been shown leading to decreased IL10 secretion.
OCI-LY10 cells were seeded in IMEM supplemented with 20% fetal bovine serum at 4.8×10^5 cells per 160 μL per well in 96-well V-bottom cell culture plates (coming, 3894), treated with 120 nL of 3-fold serial compound dilutions, starting at 4 mM. The final vehicle concentration was 0.075% DMSO in all wells. After a 24 h incubation, human IL-10 pre-coated plates (Meso Scale Discovery) were washed 3 times with PBST, and 50 μL culture medium was aspirated into the MSD plate and incubated at 4° C. overnight. The supernatant was then discarded, and the wells were washed 3 times with PBST. SULFO-TAG Anti-human IL-10 Antibody (50×) was diluted 50-fold according to the Meso Scale Protocol, then 25 μL of SULFO-TAG Anti-human IL-10 Antibody (1×) was added. After 2 h of incubation at RT, the supernatant was discarded, and the well was washed 3 times with PBST. 2× read buffer was added and the signal was read on an MSD Sector S600. The effect of a particular compound on IL10 secretion is shown relative to the effect of DMSO; set as 100%. IC50 values (nM) were determined using 4-parametric curve-fitting.

Compound	IC50 [1]	IC50 [2]
Cn1ccc([C@@]2(C)C[C@H](C(=O)Nc3cnc(-n4nccn4)c(Cl)c3)c3cnc4cc(F)nn4c32)n1 (single isomer, unassigned) [Example 32]	< 10 nM	100 to 1000 nM
Cn1cc([C@@]2(C)C[C@H](C(=O)Nc3cnc(-n4nccn4)c(C(F)(F)F)c3)c3cnc4cc(F)nn4c32)cn1 (single isomer, unassigned) [Example 5]	< 10 nM	10 to 100 nM
C[C@]1(c2cnn(C3CC3)c2)C[C@H](C(=O)Nc2cnc(-n3nccn3)c(Cl)c2)c2cnc3cc(F)nn3c21 (single isomer, unassigned) [Example 28]	< 10 nM	10 to 100 nM
C[C@]1(c2ccn(C(F)F)n2)C[C@H](C(=O)Nc2cnc(-c3ncccn3)c(Cl)c2)c2cnc3cc(F)nn3c21 (single isomer, unassigned) [Example 140]	< 10 nM	10 to 100 nM
Cn1cc([C@@]2(C)C[C@H](C(=O)Nc3cnc(-n4nccn4)c(Cl)c3)c3cnc4c(F)c(F)nn4c32)cn1 (single isomer, unassigned) [Example 12]	< 10 nM	100 to 1000 nM
C[C@]1(c2ccn(C(F)F)n2)C[C@H](C(=O)Nc2cnc(-c3ncccn3)c(C(F)(F)F)c2)c2cnc3cc(F)nn3c21 (single isomer, unassigned) [Example 136]	< 10 nM	10 to 100 nM
Cn1ccc([C@@]2(C)C[C@H](C(=O)Nc3cnc(OC(F)F)c(C#N)c3)c3cnc4cc(F)nn4c32)n1 (single isomer, unassigned) [Example 68]	< 10 nM	100 to 1000 nM
C[C@]1(c2ccn(C(F)F)n2)C[C@H](C(=O)Nc2cnc(-n3nccn3)c(C(F)(F)F)c2)c2cnc3cc(F)nn3c21 (single isomer, unassigned) [Example 124]	< 10 nM	10 to 100 nM
Cn1cc([C@@]2(C)C[C@H](C(=O)Nc3cnc(-n4nccn4)c(Cl)c3)c3cnc4cc(F)nn4c32)cn1 (single isomer, unassigned) [Example 1]	< 10 nM	100 to 1000 nM
CC1(c2ccn(C(F)F)n2)CC(C(=O)Nc2cnc(-c3ncc(F)cn3)c(C(F)(F)F)c2)c2cnc3cc(F)nn3c21 (single isomer, unassigned) [Example 116]	< 10 nM	100 to 1000 nM
C[C@]1(c2ccn(C(F)F)n2)C[C@H](C(=O)Nc2cnc(-n3nccn3)c(Cl)c2)c2cnc3cc(F)nn3c21 (single isomer, unassigned) [Example 88]	< 10 nM	10 to 100 nM
C[C@]1(c2cnn(C(F)F)c2)C[C@H](C(=O)Nc2cnc(OC(F)F)c(C#N)c2)c2cnc3cc(F)nn3c21 (single isomer, unassigned) [Example 92]	< 10 nM	100 to 1000 nM
C[C@]1(c2cnn(C(F)F)c2)C[C@H](C(=O)Nc2cnc(-c3ncccn3)c(C(F)(F)F)c2)c2cnc3cc(F)nn3c21 (single isomer, unassigned) [Example 148]	10 to 100 nM	100 to 1000 nM
Cn1cc([C@@]2(C)C[C@H](C(=O)Nc3cnc(OC(F)F)c(C#N)c3)c3cnc4cc(F)nn4c32)cn1 (single isomer, unassigned) [Example 40]	< 10 nM	10 to 100 nM
Cn1ccc([C@@]2(C)C[C@H](C(=O)Nc3cnc(-n4nccn4)c(C(F)(F)F)c3)c3cnc4cc(F)nn4c32)n1 (single isomer, unassigned) [Example 144]	< 10 nM	100 to 1000 nM
